# Data published in US20240285730A1, “COMPOSITIONS AND METHODS FOR THE TREATMENT OF GRAFT VERSUS HOST DISEASE” (VectivBio AG, priority 2021, published 2024).
# Entries after “also recorded” stand apart in the source; their conditions may differ. Square brackets hold non-standard residues; d marks the D form. Peptide text beside a SMILES is read from it. ξ: configuration not given here. Ile(3ξ) = CCC(C)[C@H](N)C(=O)O; Thr(3ξ) = CC(O)[C@H](N)C(=O)O; Nle = CCCC[C@H](N)C(=O)O
# Experiments:
# WBC, NEU and LYMPH = assay: Melphalan-induced immunosuppression (WBC, NEU, LYMPH); assay type: in vivo, Balb/c mice
# Experimental: In a third experiment, the effect of apraglutide on melphalan-induced immunosuppression was assessed (FIG. 13). Three groups of Balb/c mice were included: (A) vehicle; (B) melphalan on Day 9; (C) melphalan on Day 9, apraglutide pre-treatment on Days 1, 3, 5, 7 and continued as co-administration on Days 9, 11, and 13. WBC, NEU and LYMPH were assessed.
# human leukemia cells = conditions: vs vehicle
# Experimental: In a first experiment, cytarabine's anti-tumor effects were assessed in leukemic NOD/SCID mice (FIG. 11a). Apraglutide or vehicle was administered on Days −4 to 4. Cytarabine or vehicle was administered on Days 0-4. Bone marrow and spleen samples were collected on Day 7 and percentage of hCD45+ cells determined.
# [1] = system: fecal microbiota (Bacteroidetes, Firmicutes); assay: Fecal microbiota composition during cytarabine chemotherapy (16S taxonomical meta-sequencing); assay type: in vivo, Balb/c mice; conditions: for changes in the composition of bacterial species (Bacteroidetes, Firmicutes): Days 0 to 18
# [2] = system: cytarabine-induced toxicity; assay: Apraglutide dose-response study with cytarabine chemotherapy; assay type: in vivo, BALB/cJ female mice; conditions: for polymorphonuclear (PMN) cell count: cytarabine alone or combined with hGLP-2 or apraglutide
# Experimental: The apraglutide dose-dependent impact on the immunosuppressive effect of cytarabine was evaluated. The effect of cytarabine treatment on polymorphonuclear (PMN) cell count was determined (FIG. 20). […] In a separate study during which animals treated with cytarabine alone or in combination with apraglutide initiated before cytarabine (Days-4 to +12) were allowed to survive for 4 additional weeks.
# [3] = system: acute gastrointestinal GvHD mouse model; assay: Acute GvHD mouse model, second experiment (7.0 Gy irradiation + allogeneic transplant)
# Experimental: In a second experiment BALB/cJ male mice were separated into three groups, Group A, Group B and Group C. Groups A and B consisted of 10 mice and Group C consisted of 5 mice.
# Mice in Group A received subcutaneous injections of apraglutide in an amount of 3 mg/kg/mouse (administered in 300 μl of vehicle), every second day from Day −9 to Day +7 (Days: −9, −7, −5, −3-1, +1, +3, +5, +7).
# Mice in Group B received subcutaneous injections of 300 μl of vehicle control every second day starting from Day −9 to Day +7 (Days: −9, −7, −5, −3−1, +1, +3, +5, +7).
# Mice in Group C received subcutaneous injections of 300 μl of vehicle control every second day starting from Day −9 to Day +7 (Days: −9, −7, −5, −3−1, +1, +3, +5, +7).
# On Day −1 of the experiment, all mice in Groups A and B were irradiated with 7.0 Gy using an linac x-ray source. Group C was not irradiated but were injected with the vehicle only.
# On Day 0 of the experiment, bone marrow and T cells from C57BL/6J mice were collected, prepared and transplanted into the mice of Group A and Group B. Each mouse in Group A and Group B was intravenously injected with 10 million bone marrows cells extracted from the femurs of the C57BL/6J mice and 2.5 million spleen cells extracted from the C57BL/6J mice.
# Morbidity, mortality, body weight, clinical signs (diarrhea, appearance and behavior), length of intestinal segments, and histopathology of the intestine, skin, spleen and liver were monitored in the mice of Group A, Group B and Group C. All mice were sacrificed at Day +14 at the latest.
# [4] = system: acute GVHD-induced intestinal damage; assay: TBI-induced intestinal damage with allogeneic transplantation (Example 2, second experiment)
# Experimental: In a second experiment, TBI-induced intestinal damaged BALB/cJ mice received allogeneic transplantation and were treated with apraglutide (3.3 mg/kg) or vehicle on Days −9, −7, −5, −3-1, +1, +3, +5, +7. Intestinal damage indicative of GvHD (histological changes, length, hemorrhage, inflammation), body weight, and survival were assessed.
# blood cell count = assay: Cytarabine-induced immunosuppression (blood cell counts); assay type: in vivo, Balb/c mice; conditions: 4 weeks after the end of treatment
# Experimental: In a second experiment, apraglutide's effect on the ability of cytarabine to induce immunosuppression was assessed. The experiment included three groups of Balb/c mice: (A) vehicle; (B) cytarabine on Days 5-9; (C) cytarabine on Days 5-9, concomitant apraglutide on Days 5-18. RBC, platelets, WBC, NEU and LYMPH were assessed. A cohort was allowed to survive for 4 weeks to assess the effect of apraglutide on immunosuppression recovery (FIG. 12).
# [5] = system: chemotherapy-induced gastrointestinal (GI) damage; assay: Chemotherapy-induced (cytarabine or melphalan) intestinal damage in mice; assay type: in vivo, Balb/c mice
# Experimental: In a first experiment, 4 groups of Balb/c mice: (A) vehicle only; (B) cytarabine on Days 5-9, no apraglutide given; (C) cytarabine on Days 5-9; concomitant apraglutide on Days 5-18; (D) cytarabine on Days 5-9; pre-treatment apraglutide on Days 1, 3, and continued as concomitant treatment on Days 5, 8, 11, 14, and 17. Treatment groups were dosed with 30 mg/kg cytarabine and/or apraglutide 3.3 mg/kg.
# In a second experiment, 3 treatment groups of Balb/c mice: (A) vehicle only; (B) melphalan on Day 9, no apraglutide; (C) melphalan on Day 9; pre-treatment apraglutide on Days 1, 3, 5, 7 and continued as concomitant treatment on Days 9, 11, and 13.
# In both models, mice that received vehicle without any treatment served as controls. Intestinal tissue histology, body weight, survival, and plasma citrulline, a marker of total mucosal mass and intestinal growth, was assessed in both models.
# [6] = system: human peripheral blood mononuclear cell (hPBMC) engraftment; assay: Engraftment of human PBMC in total-body-irradiated NOG mice; assay type: in vivo, immunodeficient (NOG) mice
# Experimental: Engraftment rate was determined through CD45 expression in blood, bone marrow and spleen.
# [7] = system: acute gastrointestinal GvHD mouse model; assay: Acute GvHD mouse model, first experiment (8.5 Gy irradiation + allogeneic bone marrow/spleen cell transplant); assay type: in vivo, BALB/cJ male mice
# Experimental: Mouse #3 (Group A), #13 (Group B) and #20 (Group B) were administered the cells by subcutaneous injection rather than intravenously. Mouse #5 (Group B) and #10 (Group B) received half the cells by intravenous injection and half by subcutaneous injection.
# Various histological parameters of the jejunum were also measured, including single cell necrosis levels, necrosis of all crypts, shortening of villi, cryptal hyperplasia (regenerative), cell infiltrate, and cryptal abscess. These histological parameters were graded on a standard histological grading system (1 to 3). […] These indicate that the administration of apraglutide has a protective effective against jejunal mucosal damages induced by irradiation and GvHD.
# [8] = apraglutide 3.3 mg/kg vs vehicle
# [9] = apraglutide 3 mg/kg s.c., histological grading 1 to 3, vs vehicle
smiles,measurement,setting,value
"N[C@@H](Cc1ccc(N(CCCl)CCCl)cc1)C(=O)O [melphalan, Melphalan, reference compound]",WBC and LYMPH vs vehicle,"WBC, NEU and LYMPH; melphalan on Day 9, with or without apraglutide",severe decreases
"Nc1ccn([C@@H]2O[C@H](CO)[C@@H](O)[C@@H]2O)c(=O)n1 [Cytarabine only, Cytarabine]",reduction in human leukemia cells,human leukemia cells,significantly greater than vehicle
same,"Bacteroidetes, mean (Table 1b)",[1]; Day 0,18.3
same,"Firmicutes, mean (Table 1b)",[1]; Day 0,78.7
same,"unclassified phylum, mean (Table 1b)",[1]; Day 0,1.3
same,"Bacteroidetes, mean (Table 1b)",[1]; Day 18,48.7
same,"Firmicutes, mean (Table 1b)",[1]; Day 18,49.6
same,"unclassified phylum, mean (Table 1b)",[1]; Day 18,1.2
same,"changes in the composition of bacterial species (Bacteroidetes, Firmicutes)",[1],increasing the Bacteroidetes population and decreasing the proportion of Firmicutes bacteria
same,polymorphonuclear (PMN) cell count,[2],depleted PMN counts
CCCC[C@H](NC(=O)[C@H](CCC(=O)O)NC(=O)[C@H](CC(=O)O)NC(=O)[C@H](CO)NC(=O)[C@H](Cc1ccccc1)NC(=O)[C@H](CO)NC(=O)CNC(=O)[C@H](CC(=O)O)NC(=O)CNC(=O)[C@@H](N)Cc1c[nH]cn1)C(=O)N[C@H](Cc1ccccc1)C(=O)N[C@H](C(=O)N[C@H](C(=O)N[C@@H](CC(C)C)C(=O)N[C@@H](CC(=O)O)C(=O)N[C@@H](CC(C)C)C(=O)N[C@@H](CC(C)C)C(=O)N[C@@H](C)C(=O)N[C@@H](C)C(=O)N[C@@H](CCCNC(=N)N)C(=O)N[C@@H](CC(=O)O)C(=O)N[C@@H](Cc1ccccc1)C(=O)N[C@H](C(=O)N[C@@H](CC(N)=O)C(=O)N[C@@H](Cc1c[nH]c2ccccc12)C(=O)N[C@@H](CC(C)C)C(=O)N[C@H](C(=O)N[C@@H](CCC(N)=O)C(=O)N[C@H](C(=O)N[C@@H](CCCCN)C(=O)N[C@H](C(=O)N[C@H](C(=O)N[C@@H](CC(=O)O)C(N)=O)C(C)O)C(C)CC)C(C)O)C(C)CC)C(C)CC)C(C)CC)C(C)O (stereo partly drawn) [apraglutide] (H-HGDGSFSDE[Nle][dF][Thr(3ξ)][Ile(3ξ)]LDLLAARDF[Ile(3ξ)]NWL[Ile(3ξ)]Q[Thr(3ξ)]K[Ile(3ξ)][Thr(3ξ)]D-NH2),mice survived past Day 9,"[3]; 7.0 Gy + allogeneic transplant, apraglutide 3 mg/kg s.c.",40%
same,median survival,"[3]; 7.0 Gy + allogeneic transplant, apraglutide 3 mg/kg s.c. Day −9 to +7",9 days
same,body weight of surviving mice beyond Day 9,[3]; Group A,regained body weight
same,length of the small intestine,"[3]; Groups A, B and C compared",no differences were observed
same,"weight loss, Group A vs Group B","[3]; apraglutide 3 mg/kg s.c. vs vehicle, both TBI/BMT",No significant difference
same,animal survival (Kaplan-Meier),[3]; apraglutide initiated before TBI/BMT vs TBI/BMT animals,enhanced survival; also recorded: significant difference relative to TBI/BMT animals
same,mice with intestinal pathological score of 0,"[3]; score 0 least severe to 4 most severe, Group A, 10 mice",four out of out of ten
same,lymphocyte engraftment,[4]; apraglutide 3.3 mg/kg Days −9 to +7,successfully achieved
same,median survival,[4]; [8],similar
same,"post-mortem histological examination, mucosal degenerative/inflammatory changes",[4]; [8],less mucosal degenerative/inflammatory changes
same,weight loss,[4]; [8],similar
same,overall survival,"[4]; on Day +9, apraglutide 3.3 mg/kg",40%
same,recovery of hematological parameters,blood cell count,did not impact
same,degenerative intestinal changes (villi and crypt atrophy) caused by cytarabine or melphalan,"[5]; apraglutide co-administration, 3.3 mg/kg",reduced
same,chemotherapy-induced weight loss,[5]; apraglutide with cytarabine or melphalan,attenuated
same,overall survival,[5]; vs vehicle-only or chemotherapy-only groups,improved overall survival
same,"weight of duodenum, ileum and jejunum",[5]; with apraglutide,increased in weight
same,"changes in the composition of bacterial species (Bacteroidetes, Firmicutes)",[1],the effect was reduced
same,improvement in animal survival vs cytarabine alone,[2]; all apraglutide-treated groups,statistically significant
same,plasma citrulline concentrations,[2]; apraglutide 0.33 mg/kg and 1.1 mg/kg with cytarabine vs cytarabine alone,improvement in citrulline concentrations
same,polymorphonuclear (PMN) cell count,[2],not reversed
same,initial weight loss,[2]; cytarabine combined with 0.11 mg/kg apraglutide or hGLP-2 (0.60 mg/kg twice daily),did not decrease initial weight loss
same,"engraftment rate in blood, spleen and bone marrow (CD45 expression)","[6]; apraglutide 3.3 mg/kg Days −6 to 18, TBI 1.44 Gy, hPBMC 3×10^7",not affected
same,hCD45+ cells infiltration in the intestinal wall,[6]; apraglutide vs vehicle,no difference
same,impact on cytarabine- or melphalan-induced immunosuppression,"WBC, NEU and LYMPH; combination with apraglutide",no negative impact
same,colon length,"[7]; 8.5 Gy + C57BL/6J bone marrow/spleen cells, apraglutide 3 mg/kg s.c. every second day Day −9 to +7, vs vehicle group",increased colon lengths that were nearly the same as the control mice
same,mean severity score of the regenerative cryptal hyperplasia (jejunum),[7]; [9],slightly increased
same,overall mean severity score of mucosal degenerative/inflammatory changes in the jejunum,[7]; [9],slightly decreased
